Assay results taken from patent publication US20190151312A1, “HEPARAN SULFATE BIOSYNTHESIS INHIBITORS FOR THE TREATMENT OF DISEASES” (BioMarin Pharmaceutical Inc., priority 2014, published 2019).

What follows are molecules tested on GM01896 cells (MPS II dermal fibroblasts) (assay: Assay 1: MPS cellular assay, MPS II (heparan sulfate disaccharide biomarkers by LC-MS)). Details: Assay 1 for MPS II, heparan sulfate disaccharide biomarkers (I2a4, I2a6, I2S0 and/or I2S6), read-out: IC50 Range.
Assay type: cell-based, human
Outline: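 MPS II patient dermal fibroblasts (GM01896) treated with compound at ≤30 μM for 4 to 21 days. Heparan sulfate GAGs isolated by anion exchange, digested with heparinases I-III, aniline-tagged against [13C6]aniline standards and quantified by LC-MS; IC50 from curve fitting. Viability monitored by alamar blue or ATP.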
In the case of `Cc1nn(C)c2cc(-c3cc(Nc4ccc(-n5cccn5)cc4)nc(N4CCOCC4)n3)ccc12` [[6-(1,3-dimethyl(1H-indazol-6-yl))-2-morpholin-4-ylpyrimidin-4-yl](4-pyrazolylphenyl)amine], the IC50 is reported as < 500 nM.
With `Cc1ccn(-c2ccc(Nc3cc(-c4ccc5c(C)nn(C)c5c4)nc(N4CCOCC4)n3)cc2)n1` [[6-(1,3-dimethyl(1H-indazol-6-yl))-2-morpholin-4-ylpyrimidin-4-yl][4-(3-methylpyrazolyl)phenyl]amine] the IC50 was < 500 nM.

Same assay, conditions: Homo sapiens, Fibroblast, Assay 1 for MPS II, heparan sulfate disaccharide biomarkers (I2a4, I2a6, I2S0 and/or I2S6), read-out: IC50 Range
For `Cc1nn(C)c2cc(-c3cc(Nc4ccc(-c5ncc[nH]5)cc4)nc(N4CCOCC4)n3)ccc12` [[6-(1,3-dimethyl(1H-indazol-6-yl))-2-morpholin-4-ylpyrimidin-4-yl](4-imidazol-2-ylphenyl)amine], the IC50 was < 500 nM.
`Cc1nn(C)c2cc(-c3cc(Nc4ccc(-c5c[nH]cn5)cc4)nc(N4CCOCC4)n3)ccc12` [[6-(1,3-dimethyl(1H-indazol-6-yl))-2-morpholin-4-ylpyrimidin-4-yl](4-imidazol-4-ylphenyl)amine] showed an IC50 of 1000 to 5000 nM.
In the case of `Cc1nn(C)c2cc(-c3cc(Nc4ccc(-c5ccn[nH]5)cc4)nc(N4CCOCC4)n3)ccc12` [[6-(1,3-dimethyl(1H-indazol-6-yl))-2-morpholin-4-ylpyrimidin-4-yl](4-pyrazol-5-ylphenyl)amine], the IC50 is reported as < 500 nM.
`Cc1nn(C)c2cc(-c3cc(Nc4ccc(-c5ccc[nH]5)cc4)nc(N4CCOCC4)n3)ccc12` [[6-(1,3-dimethyl(1H-indazol-6-yl))-2-morpholin-4-ylpyrimidin-4-yl](4-pyrrol-2-ylphenyl)amine] was tested, and the IC50 was < 500 nM.
Molecule `Cc1nn(C)c2cc(-c3cc(Nc4ccc(-c5cc[nH]c5)cc4)nc(N4CCOCC4)n3)ccc12` [[6-(1,3-dimethyl(1H-indazol-6-yl))-2-morpholin-4-ylpyrimidin-4-yl](4-pyrrol-3-ylphenyl)amine] has an IC50 of 500 to 1000 nM.
`COc1ccc(Cn2cc(-c3ccc(Nc4cc(-c5ccc6c(C)nn(C)c6c5)nc(N5CCOCC5)n4)cc3)cn2)cc1` [[6-(1,3-dimethyl(1H-indazol-6-yl))-2-morpholin-4-ylpyrimidin-4-yl](4-{1-[(4-methoxyphenyl)methyl]pyrazol-4-yl}phenyl)amine] showed an IC50 of 1000 to 5000 nM.
In the case of `Cc1nn(C)c2cc(-c3cc(Nc4ccc(-c5nccn5C)cc4)nc(N4CCOCC4)n3)ccc12` [[6-(1,3-dimethyl(1H-indazol-6-yl))-2-morpholin-4-ylpyrimidin-4-yl][4-(1-methylimidazol-2-yl)phenyl]amine], the IC50 is reported as < 500 nM.
Molecule `Cc1nn(C)c2cc(-c3cc(Nc4ccc(-c5cn(C)cn5)cc4)nc(N4CCOCC4)n3)ccc12` [[6-(1,3-dimethyl(1H-indazol-6-yl))-2-morpholin-4-ylpyrimidin-4-yl][4-(1-methylimidazol-4-yl)phenyl]amine] has an IC50 of 1000 to 5000 nM.
Molecule `Cc1nn(C)c2cc(-c3cc(Nc4ccc(-c5ccn(C)n5)cc4)nc(N4CCOCC4)n3)ccc12` [[6-(1,3-dimethyl(1H-indazol-6-yl))-2-morpholin-4-ylpyrimidin-4-yl][4-(1-methylpyrazol-3-yl)phenyl]amine] has an IC50 of 1000 to 5000 nM.
In the case of `Cc1nn(C)c2cc(-c3cc(Nc4ccc(-c5cccn5C)cc4)nc(N4CCOCC4)n3)ccc12` [[6-(1,3-dimethyl(1H-indazol-6-yl))-2-morpholin-4-ylpyrimidin-4-yl][4-(1-methylpyrrol-2-yl)phenyl]amine], the IC50 is reported as 500 to 1000 nM.
`Cc1nn(C)c2cc(-c3cc(Nc4ccc(-c5ccn(C)c5)cc4)nc(N4CCOCC4)n3)ccc12` [[6-(1,3-dimethyl(1H-indazol-6-yl))-2-morpholin-4-ylpyrimidin-4-yl][4-(1-methylpyrrol-3-yl)phenyl]amine] showed an IC50 of 1000 to 5000 nM.
Molecule `Cc1nn(C)c2cc(-c3cc(Nc4ccc(-c5[nH]ncc5F)cc4)nc(N4CCOCC4)n3)ccc12` [[6-(1,3-dimethyl(1H-indazol-6-yl))-2-morpholin-4-ylpyrimidin-4-yl][4-(4-fluoropyrazol-5-yl)phenyl]amine] has an IC50 of 500 to 1000 nM.
For `Cc1cnn(-c2ccc(Nc3cc(-c4ccc5c(C)nn(C)c5c4)nc(N4CCOCC4)n3)cc2)n1` [[6-(1,3-dimethyl(1H-indazol-6-yl))-2-morpholin-4-ylpyrimidin-4-yl][4-(4-methyl(1,2,3-triazol-2-yl))phenyl]amine], the IC50 was < 500 nM.
In the case of `Cc1nn(C)c2cc(-c3cc(Nc4ccc(-c5nnc(C6CC6)[nH]5)cc4)nc(N4CCOCC4)n3)ccc12` [[6-(1,3-dimethyl(1H-indazol-6-yl))-2-morpholin-4-ylpyrimidin-4-yl][4-(5-cyclopropyl(4H-1,2,4-triazol-3-yl))phenyl]amine], the IC50 is reported as < 500 nM.
In the case of `Cc1nnc(-c2ccc(Nc3cc(-c4ccc5c(C)nn(C)c5c4)nc(N4CCOCC4)n3)cc2)[nH]1` [[6-(1,3-dimethyl(1H-indazol-6-yl))-2-morpholin-4-ylpyrimidin-4-yl][4-(5-methyl(4H-1,2,4-triazol-3-yl))phenyl]amine], the IC50 is reported as < 500 nM.
`Cc1nn(C)c2cc(-c3cc(Nc4ccc5[nH]ccc5c4)nc(N4CCOCC4)n3)ccc12` [[6-(1,3-dimethyl(1H-indazol-6-yl))-2-morpholin-4-ylpyrimidin-4-yl]indol-5-ylamine] showed an IC50 of 1000 to 5000 nM.
Molecule `Cc1nn(C)c2cc(-c3cc(Nc4ccc5cc[nH]c5c4)nc(N4CCOCC4)n3)ccc12` [[6-(1,3-dimethyl(1H-indazol-6-yl))-2-morpholin-4-ylpyrimidin-4-yl]indol-6-ylamine] has an IC50 of 500 to 1000 nM.
`Cc1nn(C)c2cc(-c3cc(Nc4ccc(-c5nnc(C(C)C)[nH]5)cc4)nc(N4CCOCC4)n3)ccc12` [[6-(1,3-dimethyl(1H-indazol-6-yl))-2-morpholin-4-ylpyrimidin-4-yl]{4-[5-(methylethyl)(4H-1,2,4-triazol-3-yl)]phenyl}amine] was tested, and the IC50 was < 500 nM.
`Cc1nn(C)c2cc(-c3cc(Nc4ccc(-c5nnc(C(F)(F)F)[nH]5)cc4)nc(N4CCOCC4)n3)ccc12` [[6-(1,3-dimethyl(1H-indazol-6-yl))-2-morpholin-4-ylpyrimidin-4-yl]{4-[5-(trifluoromethyl)(4H-1,2,4-triazol-3-yl)]phenyl}amine] showed an IC50 of 1000 to 5000 nM.
Work on `Cc1nn(C)c2cc(-c3cc(Nc4ccc(-c5ncc(C(F)(F)F)[nH]5)cc4)nc(N4CCOCC4)n3)ccc12` [[6-(1,3-dimethyl(1H-indazol-6-yl))-2-morpholin-4-ylpyrimidin-4-yl]{4-[5-(trifluoromethyl)imidazol-2-yl]phenyl}amine] yielded an IC50 of 500 to 1000 nM.
`Cc1nn(C)c2cc(-c3cc(Nc4ccc(-n5nccn5)cc4)nc(N4CCOCC4)n3)cnc12` [[6-(1,3-dimethylpyrazolo[4,5-b]pyridin-6-yl)-2-morpholin-4-ylpyrimidin-4-yl](4-(1,2,3-triazol-2-yl)phenyl)amine] was tested, and the IC50 was < 500 nM.
With `Cc1nn(C)c2cc(-c3cc(Nc4ccc(Cl)cc4)nc(N4CCOCC4)n3)cnc12` [[6-(1,3-dimethylpyrazolo[4,5-b]pyridin-6-yl)-2-morpholin-4-ylpyrimidin-4-yl](4-chlorophenyl)amine] the IC50 was 500 to 1000 nM.
`Cc1nn(C)c2nc(-c3cc(Nc4ccc(Cl)cc4)nc(N4CCOCC4)n3)ccc12` [[6-(1,3-dimethylpyrazolo[4,5-e]pyridin-6-yl)-2-morpholin-4-ylpyrimidin-4-yl](4-chlorophenyl)amine] showed an IC50 of 1000 to 5000 nM.
For `Cc1nn(C)c2cc(-c3cc(Nc4ccc(Cl)cc4)nc(N4CCOCC4)n3)ncc12` [[6-(1,3-dimethylpyrazolo[5,4-d]pyridin-6-yl)-2-morpholin-4-ylpyrimidin-4-yl](4-chlorophenyl)amine], the IC50 was < 500 nM.
For `Cc1ccc(Nc2cc(-c3ccc4c(cnn4C)c3)nc(N3CCOCC3)n2)cc1` [[6-(1-methyl(1H-indazol-5-yl))-2-morpholin-4-ylpyrimidin-4-yl](4-methylphenyl)amine], the IC50 was 1000 to 5000 nM.
